pEC50, pIC50: −log10 of the molar value. Active and inactive are the calls of the source. The rule behind the calls is not given here. Where a SMILES comes first, the peptide text is derived from it. [ ]: non-standard residue; d: D form. βAla = NCCC(=O)O

Test [1] concerns Monoclonal antibody (mAb) 3E7. The experiment in a line: Affinity towards anti-beta-endorphin MAb(Clone 3-E7) using [3H][Leu5]-enkephalin as labeled ligand at 10 uM concentration; not active.
Test [2] relates to Monoclonal antibody (mAb) 3E7. The experiment in a line: Affinity towards anti-beta-endorphin MAb(Clone 3-E7) using [3H][Leu5]-enkephalin as labeled ligand.
For test [3], the system named is Monoclonal antibody (mAb) 3E7. The experiment in a line: Affinity of compound towards anti-beta-endorphin MAb(Clone 3-E7) using [3H]-[Leu5]-enkephalin as labeled ligand.

Broadly, the pIC50 is the negative decadic logarithm of the IC50, by convention in mol/L. The low end stands for a large IC50, the high end for a small IC50. Regarding `CC(C)C[C@H](NC(=O)[C@H](C)NC(=O)CNC(=O)[C@@H](N)Cc1ccc(O)cc1)C(=O)N[C@@H](CCC(N)=O)C(=O)O` (H-YGALQ-OH), in test [1], the result was inactive. Moreover, the negative logarithm of the IC50 (pIC50) in test [2] was 5.70.
The pEC50 is the negative decadic logarithm of the EC50, by convention in mol/L. Read a low pEC50 as a high EC50. In turn, `CSCC[C@H](NC(=O)[C@@H]1CCCN1C(=O)[C@H](C)NC(=O)CNC(=O)[C@@H](N)Cc1ccc(O)cc1)C(=O)O` (H-YGAPM-OH) had a negative logarithm of the EC50 (pEC50) in test [3] of 7.28.
`C[C@H](NC(=O)[C@H](Cc1ccccc1)NC(=O)CNC(=O)CNC(=O)[C@@H](N)Cc1ccc(O)cc1)C(=O)O` (H-YGGFA-OH): the outcome in test [1] was inactive. In test [2], this compound had a pIC50 of 7.48.
The corresponding values for `C[C@@H](O)[C@H](NC(=O)[C@H](Cc1ccccc1)NC(=O)CNC(=O)CNC(=O)[C@@H](N)Cc1ccc(O)cc1)C(=O)O` (H-YGGFT-OH) are “inactive” and 7.43.
In the case of `C[C@@H](O)[C@H](NC(=O)[C@H](Cc1ccccc1)NC(=O)CNC(=O)CNC(=O)[C@@H](N)Cc1ccc(O)cc1)C(=O)NCCC(=O)O` (H-YGGFT[βAla]-OH), in test [2], the pIC50 was 7.30.
On the same count and under the same terms, for `CC(C)C[C@H](NC(=O)CNC(=O)CNC(=O)[C@@H](N)Cc1ccc(O)cc1)C(=O)N[C@@H](CO)C(N)=O` (H-YGGLS-NH2) the value was 6.00.
Turning to `CC(C)C[C@H](NC(=O)CNC(=O)CNC(=O)[C@@H](N)Cc1ccc(O)cc1)C(=O)N[C@@H](CO)C(=O)O` (H-YGGLS-OH), in test [1], the result was inactive. Moreover, in test [2], the pIC50 is 6.14.
As to `CC(C)C[C@H](NC(=O)CNC(=O)CNC(=O)[C@@H](N)Cc1ccc(O)cc1)C(=O)N[C@@H](CO)C(=O)NCCC(N)=O` (H-YGGLS[βAla]-NH2), in test [2], the negative-log IC50 (pIC50) was 5.94.
Still for that read-out and setting: then `CC(C)C[C@H](NC(=O)CNC(=O)CNC(=O)[C@@H](N)Cc1ccc(O)cc1)C(=O)N[C@@H](CO)C(=O)NCCC(=O)O` (H-YGGLS[βAla]-OH), with 6.04.
Still for that read-out and setting: for `CSCC[C@H](NC(=O)CNC(=O)CNC(=O)[C@@H](N)Cc1ccc(O)cc1)C(=O)N[C@H](C(N)=O)C(C)C` (H-YGGMV-NH2) the value was 4.85.
As for `CSCC[C@H](NC(=O)CNC(=O)CNC(=O)[C@@H](N)Cc1ccc(O)cc1)C(=O)N[C@H](C(=O)O)C(C)C` (H-YGGMV-OH), the outcome in test [1] was inactive. This compound had a pIC50 in test [2] of 5.06.
For `CSCC[C@H](NC(=O)CNC(=O)CNC(=O)[C@@H](N)Cc1ccc(O)cc1)C(=O)N[C@H](C(=O)NCCC(N)=O)C(C)C` (H-YGGMV[βAla]-NH2), in test [2], the pIC50 is 5.15.
On the same count and under the same terms, for `CSCC[C@H](NC(=O)CNC(=O)CNC(=O)[C@@H](N)Cc1ccc(O)cc1)C(=O)N[C@H](C(=O)NCCC(=O)O)C(C)C` (H-YGGMV[βAla]-OH) the value was 5.29.
Same read-out and setting: for `CC(C)C[C@H](NC(=O)[C@H](Cc1ccccc1)NC(=O)CNC(=O)CNC(=O)[C@@H](N)Cc1ccc(O)cc1)C(N)=O` [[LEU5]ENKEPHALIN] the value was 7.56.

For the origin of these results see ChEMBL document CHEMBL1150994, “The chemical synthesis of large random peptide libraries and their use for the discovery of ligands for macromolecular acceptors” (Bioorg Med Chem Lett, 1993).
